# Data as given in patent EP3057950B1, “PHENYL LINKED QUINOLINYL MODULATORS OF ROR-GAMMA-T” (Janssen Pharmaceutica NV, priority 2013, dated 2015).
# pIC50, pKd: −log10 of the molar value. Where a name gives a salt, the structure may show the parent alone. Read-outs that look alike come from different tables or passages of the source.
# Assays:
# [1] = molecular target: T1, wild type human RORγt LBD (Homo sapiens, UniProt P51449); test: RORγt Reporter Assay (GAL4-RORγt LBD luciferase in HEK293T cells); type: cell-based; settings: for pIC50: read-out: RORγt reporter Assay, IC50; for inhibition at 6 µM: HEK-293T
# T1 construct: expressed in transfected cells; host or cells: HEK293T
# T1 sequence (P51449 269-508 limits assumed): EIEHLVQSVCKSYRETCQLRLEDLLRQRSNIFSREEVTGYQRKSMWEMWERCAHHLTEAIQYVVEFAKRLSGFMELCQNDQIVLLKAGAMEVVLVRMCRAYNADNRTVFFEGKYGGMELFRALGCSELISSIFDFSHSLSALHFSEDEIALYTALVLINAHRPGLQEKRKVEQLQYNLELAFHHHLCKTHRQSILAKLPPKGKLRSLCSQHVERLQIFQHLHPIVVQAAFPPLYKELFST
# From the text: A reporter assay was used to test functional activity of RORγt modulatory compounds on transcriptional activation driven by the RORγt LBD. Cells used in the assay were co-transfected with two constructs. The first construct, pBIND-RORγt LBD, contained the wild type human RORγt LBD fused to the DNA binding domain of the GAL4 protein. The second construct, pGL4.31 (Promega Cat no. C935A), contained multiple GAL4 responsive DNA elements upstream of firefly luciferase. […] The mutant construct was called pBIND-RORγt-AF2.
# The pBIND vector contains the GAL4 DNA Binding Domain (GAL4 DBD) and the renilla luciferase gene under control of the SV40 promoter. Renilla luciferase expression serves as a control for transfection efficiency and cell viability.
# The reporter assay was performed by transiently transfecting HEK293T cells with 5 µg of pBIND-RORγt LBD or pBIND-RORγt LBD-AF2 and 5 µg pGL4.31 (Promega Cat no. C935A) using Fugene 6 (Invitrogen Cat no. E2691) at a 1:6 ratio of DNA: Fugene 6 in a T-75 flask in which cells were at least 80% confluent. Twenty four hours after bulk transfection, cells were plated into 96-well plates at 50,000 cells/well in phenol-red free DMEM containing 5% Lipid Reduced FCS and Pen/Strep. Six hours after plating, cells were treated with compounds for 24 hours. Media was removed and cells were lysed with 50 µL 1x Glo Lysis Buffer (Promega). Dual Glo Luciferase Reagent (50 µL/well) was then added and firefly luciferase luminescence was read on an Envision after a ten minute incubation. Finally, Stop and Glo reagent (50 µL/well) was added and renilla luciferase luminescence was read on an Envision instrument after a ten minute incubation. To calculate the effect of compounds on RORγt activity, the ratio of firefly to renilla luciferase was determined and plotted against compound concentration. Agonist compounds increase RORγt-driven luciferase expression, and antagonist or inverse agonist compounds decrease luciferase expression.
# [2] = molecular target: T2, wild type human RORγt ligand binding domain (RORγt LBD) (Homo sapiens, UniProt P51449); test: RORγt ThermoFluor® Assay (thermal shift, binding affinity); settings: pH 7.0, estimated from concentration response curves
# T2 construct: His-tag (N); TurboTEV protease cleavage site (ENLYFQG) (N); made in house; host or cells: E. coli (pHIS1, modified pET expression vector)
# T2 sequence (P51449 269-508 limits assumed): T1 sequence (P51449 269-508 limits assumed)
# Procedure: This approach is applicable to a wide variety of systems, and rigorous in theoretical interpretation through quantitation of equilibrium binding constants (KD).
# The shift in the melting point described as a ΔTm is proportional to the concentration and affinity of the ligand.
# Protein and compound solutions are dispensed into black 384-well polypropylene PCR microplates (Abgene) and overlayed with silicone oil (1 µL, Fluka, type DC 200) to prevent evaporation.
# Bar-coded assay plates are robotically loaded onto a thermostatically controlled PCR-type thermal block and then heated at a typical ramp-rate of 1 °C/min for all experiments. Fluorescence was measured by continuous illumination with UV light (Hamamatsu LC6) supplied via fiber optic and filtered through a band-pass filter (380-400 nm; >6 OD cutoff). Fluorescence emission of the entire 384-well plate was detected by measuring light intensity using a CCD camera (Sensys, Roper Scientific) filtered to detect 500 ± 25 nm, resulting in simultaneous and independent readings of all 384 wells. Images were collected at each temperature, and the sum of the pixel intensity in a given area of the assay plate was recorded versus temperature. Reference wells contained RORγt without compounds, and the assay conditions were as follows: • 0.065 mg/mL RORγt • 60 µM 1,8-ANS • 100 mM Hepes, pH 7.0 • 10 mM NaCl • 2.5 mM GSH • 0.002% Tween-20
# Project compounds were arranged in a pre-dosed mother plate (Greiner Bio-one) wherein compounds are serially diluted in 100% DMSO by 1:2 from a high concentration of 10 mM over 12 columns within a series (column 12 is a reference well containing DMSO, no compound). The compounds were robotically dispensed directly into assay plates (1x = 46 nL) using a Hummingbird capillary liquid handling instrument (Digilab). Following compound dispense, protein and dye in buffer was added to achieve the final assay volume of 3 µL, followed by 1 µL of silicone oil.
# [3] = HEK293T cells, compounds for 24 hours
# [4] = read-out: RORγt reporter Assay, % inhibition @ 6 µM, @ 6 µM, HEK293T cells
"pIC50 [1, 3]","inhibition at 6 µM [1, 4] [%]",pKd [2],"RORγt reporter Assay, % inhibition @ 6 µM ([1]; @ 6 µM, HEK293T cells) [%]",Compound,"inhibition at 6 µM ([1]; read-out: RORγt reporter Assay, % inhibition @ 6 µM) [%]","IC50 ([1]; RORγt reporter Assay, IC50 (µM), HEK293T cells, compounds for 24 hours) [µM]"
< 5.22,-52,5.70,–,"COc1nc2ccc(C(O)(c3ccc(C(F)(F)F)nc3)c3cncn3C)cc2c(Cl)c1-c1cncc(S(C)(=O)=O)c1 (stereo not drawn) [Example 13, {4-Chloro-2-methoxy-3-[5-(methylsuflonyl)pyridin-3-yl]quinolin-6-yl)(1-methyl-1H-imidazol-5-yl)[6-(trifluoromethyl)pyridin-3-yl]methanol•TFA]",–,–
< 5.22,60,4.96,–,"OC(c1ccccc1)(c1ccc2nc(Cl)c(-c3ccccc3Cl)c(Cl)c2c1)c1ncco1 (stereo not drawn) [Example 74, (2,4-Dichloro-3-(2-chlorophenyl)quinolin-6-yl)(oxazol-2-yl)(phenyl)methanol]",–,–
~5.40,80,4.82,–,"CC(=O)N1CCC(C(O)(c2ccc(C(F)(F)F)nc2)c2cc(C)c3nc(C#N)c(-c4ccccc4)c(C#N)c3c2)CC1 (single isomer, unassigned) [Example 27b, 6-((1-Acetylpiperidin-4-yl)(hydroxy)(6-(trifluoromethyl)pyridin-3-yl)methyl)-8-methyl-3-phenylquinoline-2,4-dicarbonitrile]",–,–
7.51,99,7.05,–,"COCCN(C)c1nc2ccc(C(O)(c3ccc(Cl)cc3)c3cncn3C)cc2c(Cl)c1-c1ccccc1 (stereo not drawn) [Example 50, {4-Chloro-2-[(2-methoxyethyl)(methyl)amino]-3-phenylquinolin-6-yl}(4-chlorophenyl)(1-methyl-1H-imidazol-5-yl)methanol]",–,–
< 5.22,32,6.19,–,"COc1nc2ccc(C(O)(c3ccc(C(F)(F)F)nc3)c3cncn3C)cc2c(Cl)c1-c1cccc(S(C)(=O)=O)c1 (stereo not drawn) [Example 11, {4-Chloro-2-methoxy-3-[3-(methylsuffonyl)phenyl]quinolin-6-yl)(1-methyl-1H-imidazol-5-yl)[6-(trifluoromethyl)pyridin-3-yl]methanol•TFA]",–,–
~5.22,52,5.46,–,"Cn1cncc1C(O)(c1ccc(Cl)cc1)c1ccc2nc(OCCN)c(-c3ccccc3)c(Cl)c2c1 (stereo not drawn) [Example 52, [2-(2-Aminoethoxy)4-chloro-3-phenylquinolin-6-yl](4-chlorophenyl)(1-methyl-1H-imidazol-5-yl)methanol]",–,–
7.64,104,8.82,–,"COc1c(-c2ccccc2)c(Cl)nc2ccc(C(O)(c3cnnn3C)c3cnc(C)n3C)cc12 (stereo not drawn) [Example 40a, (2-Chloro-4-metboxy-3-phenylquinolin-6-yl)(1,2-dimethyl-1H-imidazol-5-yl)(1-methyl-1H-1,2,3-triazol-5-yl)methanol•TFA]",–,–
~5.70,90,6.19,–,COc1nc2ccc(C(O)(c3ccc(C(F)(F)F)nc3)c3cncn3C)cc2c(Cl)c1-c1cccc(NS(C)(=O)=O)c1 (stereo not drawn) [Example 12],–,–
< 5.22,72,4.92,–,"CCCCc1c(-c2ccccc2)c(OC(C)C)nc2ccc(C(O)(c3ccncc3)c3cncn3C)cc12 (stereo not drawn) [Example 80, (4-Butyl-2-isopropoxy-3-phenylquinolin-6-yl)(1-methyl-1H-imidazol-5-yl)(pyridin4-yl)methanol•TFA]",–,–
~5.70,87,5.46,–,"Cc1cc(C(O)(c2ccc(C(F)(F)F)nc2)c2cncn2C)cc2c(C#N)c(-c3ccccc3)c(C#N)nc12 (single isomer, unassigned) [Example 25b, 6-(Hydroxy(1-methyl-1H-imidazol-5-yl)(6-(trifluoromethyl)pyridin-3-yl)methyl)-8-methyl-3-phenylquinoline-2,4-dicarbonitrile]",–,–
5.96,96,5.96,–,"CCC(=O)NCCOc1nc2ccc(C(O)(c3ccc(Cl)cc3)c3cncn3C)cc2c(Cl)c1-c1ccccc1 (stereo not drawn) [Example 51, N-[2-({4-Chloro-6-[(4-chlorophenyl)(hydroxy)(1-methyl-1H-imidazol-5-yl)methyl]-3-phenylquinolin-2-yl}oxy)ethyl]propanamide]",–,–
< 5.22,56,4.92,–,"Cc1nc(C)c(C(O)(c2ccc(Cl)cc2)c2ccc3nc(Cl)c(-c4ccccc4)c(Cl)c3c2)s1 (stereo not drawn) [Example 87, (4-Chlorophenyl)(2,4-dichloro-3-phenylquinolin-6-yl)(2,4-dimethylthiazol-5-yl)methanol]",–,–
5.96,55,8.17,–,"COc1nc2ccc(C(O)(c3ccc(C(F)(F)F)nc3)c3cncn3C)cc2c(Cl)c1-c1ccc(Cl)s1 (stereo not drawn) [Example 14a, [4-Chloro-3-(5-chlorothiophen-2-yl)-2-methoxyquinofin-6-yl](1-methyl-1H-imidazol-5-yl)[6-(trifluoromethyl)pyridin-3-yl]methanol•TFA]",–,–
< 5.22,–,4.85,40,"Cn1cncc1C(O)(c1ccc2nc(C#N)c(-c3ccccc3)c(C#N)c2c1)c1ccccn1 (single isomer, unassigned) [Example 18b, 6-(Hydroxy(1-methyl-1H-imidazol-5-yl)(pyridin-2-yl)methyl)-3-phenylquinoline-2,4-dicarbonitrile]",–,–
7.52,93,9.59,–,"COc1c(-c2ccccc2)c(Cl)nc2ccc(C(O)(c3sc(C)nc3C)c3cncn3C)cc12 (stereo not drawn) [Example 38, (2-Chloro-4-methoxy-3-phenylquinolin-6-yl)(2,4-dimethylthiazol-5-yl)(1-methyl-1H-imidazol-5-yl)methanol•TFA]",–,–
5.72,92,6.03,–,"Cn1cncc1C(O)(c1ccc(Cl)cc1)c1ccc2nc(Cl)c(-c3cccnc3)c(Cl)c2c1 (stereo not drawn) [Example 6, (4-Chlorophenyl)(2,4-dichloro-3-(pyridin-3-yl)quinolin-6-yl)(0-methyl-1H-imidazol-5-yl)methanol•TFA]",–,–
7.41,98,8.46,–,"CSc1nc2ccc(C(O)(c3sc(C)nc3C)c3cncn3C)cc2c(Cl)c1-c1ccccc1 (stereo not drawn) [Example 43, (4-Chloro-2-(methylthio)-3-phenylquinolin-6-yl)(2,4-dimethylthiazol-5-yl)(1-methyl-1H-imidazol-5-yl)methanol•TFA]",–,–

Compound,"pIC50 [1, 3]","inhibition at 6 µM [1, 4] [%]",pKd [2],"RORγt reporter Assay, % inhibition @ 6 µM ([1]; @ 6 µM, HEK293T cells) [%]","inhibition at 6 µM ([1]; read-out: RORγt reporter Assay, % inhibition @ 6 µM) [%]","IC50 ([1]; RORγt reporter Assay, IC50 (µM), HEK293T cells, compounds for 24 hours) [µM]"
"Cn1cncc1C(O)(c1ccc(Cl)cc1)c1ccc2nc(OCCN3CC3)c(-c3ccccc3)c(Cl)c2c1 (stereo not drawn) [Example 44, [2-(2-Aziridin-1-ylethoxy)-4-chloro-3-phenylquinolin-6-yl](4-chlorophenyl)(1-methyl-1H-imidazol-5-yl)methanol]",–,–,5.27,–,31,> 6
